Experimental data taken from ChEMBL document CHEMBL5143648, “Exploration of inhibitors of the bacterial LexA repressor-protease” (Bioorg Med Chem Lett, 2022).

Assay: Inhibition of N-terminal tetra-cysteine tagged LexA repressor (unknown origin) assessed as reduction in RecA-mediated autoproteolysis by measuring release of fluorophore-labeled peptide using FlAsH-EDT2 as fluorescent substrate by FlAsH-LexA assay
Set-up: species or system Bacteria
With `Nc1c(C(=O)Nc2ccccc2)nnn1CC(=O)NC1CCCCCC1` the IC50 was > 250 µM. In the case of `Cc1ccc(NC(=O)Cn2nnc(C(=O)Nc3ccccc3)c2N)c(C)c1`, the IC50 is reported as > 250 µM. `CCOc1ccc(NC(=O)Cn2nnc(C(=O)Nc3ccccc3)c2N)cc1` showed an IC50 of 48 µM. With `Nc1c(C(=O)Nc2ccccc2)nnn1CC(=O)Nc1c(Cl)cc(Cl)cc1Cl` the IC50 was > 250 µM. With `Nc1c(C(=O)Nc2ccccc2)nnn1CC(=O)Nc1ccc(Cl)cc1` the IC50 was > 250 µM. For `Nc1c(C(=O)Nc2ccccc2)nnn1CC(=O)Nc1ccc(C(=O)C(F)(F)F)cc1`, the IC50 was > 250 µM. With `Nc1ccc(NC(=O)Cn2nnc(C(=O)Nc3ccccc3)c2N)cc1` the IC50 was > 250 µM. `Cc1ccc(NC(=O)Cn2nnc(C(=O)Nc3ccccc3)c2N)cc1` showed an IC50 of 107 µM. Work on `COC(=O)c1ccc(NC(=O)Cn2nnc(C(=O)Nc3ccccc3)c2N)cc1` yielded an IC50 of 75 µM. With `Nc1c(C(=O)Nc2ccccc2)nnn1CC(=O)Nc1ccc(O)cc1` the IC50 was > 250 µM. For `Cc1ccccc1NC(=O)Cn1nnc(C(=O)Nc2ccccc2)c1N`, the IC50 was > 250 µM. In the case of `Cc1ccc(/N=C2\NC(=O)C(N)=C2C(=O)Nc2ccccc2)cc1`, the IC50 is reported as > 250 µM.
